Source: patent US20240409585A1, “MACROCYCLIC IMMUNOMODULATORS” (priority 2021, published 2024)
Bridge positions count the residues as written; N and C are the ends. Square brackets hold non-standard residues; d marks the D form. Peptide text beside a SMILES is read from it. * marks the point of attachment. ξ: configuration not given here. Phe(4-COOH) = N[C@@H](Cc1ccc(C(=O)O)cc1)C(=O)O; Bip = N[C@@H](Cc1ccc(-c2ccccc2)cc1)C(=O)O; Phe(3-CN) = N#Cc1cccc(C[C@H](N)C(=O)O)c1; Phe(3-OMe) = COc1cccc(C[C@H](N)C(=O)O)c1; Phe(3-F) = N[C@@H](Cc1cccc(F)c1)C(=O)O; Phe(3-Me) = Cc1cccc(C[C@H](N)C(=O)O)c1; Val(3-OH) = CC(C)(O)[C@H](N)C(=O)O; h4Pal = N[C@@H](CCc1ccncc1)C(=O)O; 4Pal = N[C@@H](Cc1ccncc1)C(=O)O; Cha = N[C@@H](CC1CCCCC1)C(=O)O; Cit = NC(=O)NCCC[C@H](N)C(=O)O; Thr(3ξ) = CC(O)[C@H](N)C(=O)O; Pip = O=C(O)[C@@H]1CCCCN1; dNva = CCC[C@@H](N)C(=O)O; Carboxymethyl = O=C(O)C*; NMeA = CN[C@@H](C)C(=O)O; Pra = C#CC[C@H](N)C(=O)O; Dab = NCC[C@H](N)C(=O)O; Dap = NC[C@H](N)C(=O)O; Allyl = C=CC*

Molecular target: T1, PE-labeled human PD-L1-Ig binding to Jurkat cell line over-expressing human PD-1 (Jurkat-PD-1) (Homo sapiens, UniProt Q15116)
T1 construct: expressed in transfected cells; host or cells: Jurkat
Test: Jurkat-PD-1 Cell Binding High-Content Screening Assay (CBA): Method 1
Details: Jurkat-hPD-1 cells, PE-labeled PD-L1-Ig 20 nM final; read-out: Jurkat HPDL1 PD1 IC50 (uM) (Method 1)

T1 sequence (Q15116 25-288): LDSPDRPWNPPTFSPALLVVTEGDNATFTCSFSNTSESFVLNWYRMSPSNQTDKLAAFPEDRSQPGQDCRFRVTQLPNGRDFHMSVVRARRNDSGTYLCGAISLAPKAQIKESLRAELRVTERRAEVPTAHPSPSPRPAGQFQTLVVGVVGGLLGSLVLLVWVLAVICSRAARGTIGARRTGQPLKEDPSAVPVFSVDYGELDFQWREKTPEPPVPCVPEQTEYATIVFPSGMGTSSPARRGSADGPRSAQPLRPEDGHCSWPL

SMILES | IC50 [µM]
Cc1cccc(C[C@@H]2NC(=O)[C@H](CC(=O)O)NC(=O)[C@H](Cc3ccc(OCC(=O)O)cc3)NC(=O)[C@H](CN)NC(=O)CSC[C@@H](C(N)=O)NC(=O)[C@H](CC(N)=O)NC(=O)[C@H](C(C)C)NC(=O)[C@H](CC3CCCCC3)NC(=O)[C@H](CCN)NC(=O)[C@@H](CC(C)C)NC(=O)[C@H](C)N(C)C(=O)[C@H](Cc3ccc(OCC(=O)O)cc3)NC(=O)[C@H](Cc3ccc(-c4ccccc4)cc3)NC(=O)[C@H](Cc3ccc(OCC(=O)O)cc3)NC2=O)c1 [Compound 1648] ({CH2CO}-[Dap]Y(Carboxymethyl)D[Phe(3-Me)]Y(Carboxymethyl)[Bip]Y(Carboxymethyl)[NMeA][dL][Dab][Cha]VNC-NH2; thioether N-14) | 0.03
C#CC[C@H](NC(=O)CNC(=O)[C@@H]1CSCC(=O)N[C@@H](Cc2ccc(OCC(=O)O)cc2)C(=O)N[C@@H](Cc2ccc(C(=O)O)cc2)C(=O)N[C@@H](CC(=O)O)C(=O)N[C@@H](Cc2c[nH]c3ccccc23)C(=O)N[C@@H](CC(C)C)C(=O)N[C@@H](Cc2ccc(-c3ccccc3)cc2)C(=O)N[C@@H](C(C)C)C(=O)N(C)[C@@H](C)C(=O)N[C@H](CC(C)C)C(=O)N[C@@H](CCN)C(=O)N[C@@H](CC2CCCCC2)C(=O)N[C@@H](C(C)(C)O)C(=O)N[C@@H](CO)C(=O)N1)C(=O)O [Compound 1935] ({CH2CO}-Y(Carboxymethyl)[Phe(4-COOH)]DWL[Bip]V[NMeA][dL][Dab][Cha][Val(3-OH)]SCG[Pra]-OH; thioether N-14) | 0.04
Cc1cccc(C[C@@H]2NC(=O)[C@H](CC(=O)O)NC(=O)[C@H](Cc3ccc(OCC(=O)O)cc3)NC(=O)[C@H](C(C)O)NC(=O)CSC[C@@H](C(=O)N[C@@H](CCN)C(N)=O)NC(=O)[C@H](CO)NC(=O)[C@H](C(C)(C)O)NC(=O)[C@H](CC3CCCCC3)NC(=O)[C@H](CCN)NC(=O)[C@@H](CC(C)C)NC(=O)[C@H](C)N(C)C(=O)[C@H](Cc3ccc(OCC(=O)O)cc3)NC(=O)[C@H](Cc3ccc(-c4ccccc4)cc3)NC(=O)[C@H](Cc3ccc(C(=O)O)cc3)NC2=O)c1 (stereo partly drawn) [Compound 2150] ({CH2CO}-[Thr(3ξ)]Y(Carboxymethyl)D[Phe(3-Me)][Phe(4-COOH)][Bip]Y(Carboxymethyl)[NMeA][dL][Dab][Cha][Val(3-OH)]SC[Dab]-NH2; thioether N-14) | 0.01
Cc1cccc(C[C@@H]2NC(=O)[C@H](CC(=O)O)NC(=O)[C@H](Cc3ccc(OCC(=O)O)cc3)NC(=O)[C@H](Cc3ccncc3)NC(=O)CSC[C@@H](C(N)=O)NC(=O)[C@H](CCC(N)=O)NC(=O)[C@H](C(C)C)NC(=O)[C@H](CC3CCCCC3)NC(=O)[C@H](CCN)NC(=O)[C@@H](CC(C)C)NC(=O)[C@H](C)N(C)C(=O)[C@H](Cc3ccc(OCC(=O)O)cc3)NC(=O)[C@H](Cc3ccc(-c4ccccc4)cc3)NC(=O)[C@H](Cc3ccc(OCC(=O)O)cc3)NC2=O)c1 [Compound 1659] ({CH2CO}-[4Pal]Y(Carboxymethyl)D[Phe(3-Me)]Y(Carboxymethyl)[Bip]Y(Carboxymethyl)[NMeA][dL][Dab][Cha]VQC-NH2; thioether N-14) | 0.03
CCNC(=O)[C@H](CCN)NC(=O)[C@@H]1CSCC(=O)N[C@@H](Cc2ccncc2)C(=O)N[C@@H](Cc2cccc(C#N)c2)C(=O)N[C@@H](CC(=O)O)C(=O)N[C@@H](Cc2cccc(C)c2)C(=O)N[C@@H](Cc2cccc(F)c2)C(=O)N[C@@H](Cc2ccc(-c3ccccc3)cc2)C(=O)N[C@@H](Cc2ccc(OCC(=O)O)cc2)C(=O)N(C)[C@@H](C)C(=O)N[C@H](CC(C)C)C(=O)N[C@@H](CCN)C(=O)N[C@@H](CC2CCCCC2)C(=O)N[C@@H](C(C)(C)O)C(=O)N[C@@H](CO)C(=O)N1 [Compound 1843] ({CH2CO}-[4Pal][Phe(3-CN)]D[Phe(3-Me)][Phe(3-F)][Bip]Y(Carboxymethyl)[NMeA][dL][Dab][Cha][Val(3-OH)]SC[Dab]-NHEt; thioether N-14) | 0.01
Cc1cccc(C[C@@H]2NC(=O)[C@H](CC(=O)O)NC(=O)[C@H](Cc3ccc(OCC(=O)O)cc3)NC(=O)[C@H](Cc3ccncc3)NC(=O)CSC[C@@H](C(=O)N[C@@H](CCN)C(N)=O)NC(=O)[C@H](CCC(N)=O)NC(=O)[C@H](C(C)(C)O)NC(=O)[C@H](CC3CCCCC3)NC(=O)[C@H](CCN)NC(=O)[C@@H](CC(C)C)NC(=O)[C@H](C)N(C)C(=O)[C@H](Cc3ccc(OCC(=O)O)cc3)NC(=O)[C@H](Cc3ccc(-c4ccccc4)cc3)NC(=O)[C@H](Cc3ccc(OCC(=O)O)cc3)NC2=O)c1 [Compound 2192] ({CH2CO}-[4Pal]Y(Carboxymethyl)D[Phe(3-Me)]Y(Carboxymethyl)[Bip]Y(Carboxymethyl)[NMeA][dL][Dab][Cha][Val(3-OH)]QC[Dab]-NH2; thioether N-14) | 0.02

The next lines start with the values.

IC50 [µM] | SMILES
0.41 | C=CCOc1ccc(C[C@@H]2NC(=O)[C@H](Cc3ccccc3)NC(=O)CSC[C@@H](C(=O)N[C@@H](C)C(N)=O)NC(=O)[C@H]([C@@H](C)O)NC(=O)[C@H](C(C)C)NC(=O)[C@H](CC(C)C)NC(=O)[C@H](CCCNC(=N)N)NC(=O)[C@@H](CC(C)C)NC(=O)[C@H](C)N(C)C(=O)[C@H](CCCNC(=N)N)NC(=O)[C@H](Cc3ccc(-c4ccccc4)cc3)NC(=O)[C@H](C(C)C)NC(=O)[C@H](Cc3c[nH]c4ccccc34)NC(=O)[C@H](CC(=O)O)NC2=O)cc1 [Compound 1088] ({CH2CO}-FY(Allyl)DWV[Bip]R[NMeA][dL]RLVTCA-NH2; thioether N-14)
0.04 | COc1cccc(C[C@@H]2NC(=O)[C@H](CC(=O)O)NC(=O)[C@H](Cc3ccc(O)cc3)NC(=O)[C@H](CC(N)=O)NC(=O)CSC[C@@H](C(=O)N[C@@H](C)C(N)=O)NC(=O)[C@H]([C@@H](C)O)NC(=O)[C@H](C(C)C)NC(=O)[C@H](CC(C)C)NC(=O)[C@H](CCN)NC(=O)[C@@H](CC(C)C)NC(=O)[C@H](C)N(C)C(=O)[C@H](CCCNC(N)=O)NC(=O)[C@H](Cc3ccc(-c4ccccc4)cc3)NC(=O)[C@H](C(C)C)NC2=O)c1 [Compound 1231] ({CH2CO}-NYD[Phe(3-OMe)]V[Bip][Cit][NMeA][dL][Dab]LVTCA-NH2; thioether N-14)
0.01 | Cc1cccc(C[C@@H]2NC(=O)[C@H](CC(=O)O)NC(=O)[C@H](Cc3ccncc3)NC(=O)[C@H](Cc3ccc(OCC(=O)O)cc3)NC(=O)CSC[C@@H](C(N)=O)NC(=O)[C@H](CO)NC(=O)[C@H](C(C)C)NC(=O)[C@H](CC(C)C)NC(=O)[C@H](CC(N)=O)NC(=O)[C@@H](CC(C)C)NC(=O)[C@H](C)N(C)C(=O)[C@H](C(C)C)NC(=O)[C@H](Cc3ccc(-c4ccccc4)cc3)NC(=O)[C@H](CC(C)C)NC2=O)c1 [Compound 1595] ({CH2CO}-Y(Carboxymethyl)[4Pal]D[Phe(3-Me)]L[Bip]V[NMeA][dL]NLVSC-NH2; thioether N-14)
0.01 | Cc1cccc(C[C@@H]2NC(=O)[C@H](CC(=O)O)NC(=O)[C@H](CCc3ccncc3)NC(=O)[C@H](CN)NC(=O)CSC[C@@H](C(=O)N[C@@H](C)C(N)=O)NC(=O)[C@H]([C@@H](C)O)NC(=O)[C@H](C(C)C)NC(=O)[C@H](CC(C)C)NC(=O)[C@H](CCN)NC(=O)[C@@H](CC(C)C)NC(=O)[C@H](C)N(C)C(=O)[C@H](CCCNC(N)=O)NC(=O)[C@H](Cc3ccc(-c4ccccc4)cc3)NC(=O)[C@H](C(C)C)NC2=O)c1 [Compound 1547] ({CH2CO}-[Dap][h4Pal]D[Phe(3-Me)]V[Bip][Cit][NMeA][dL][Dab]LVTCA-NH2; thioether N-14)
0.01 | C#CC[C@H](NC(=O)[C@@H](C)NC(=O)[C@@H]1CSCC(=O)N[C@@H](Cc2ccc(OCC(=O)O)cc2)C(=O)N[C@@H](Cc2ccc(C(=O)O)cc2)C(=O)N[C@@H](CC(=O)O)C(=O)N[C@@H](Cc2c[nH]c3ccccc23)C(=O)N[C@@H](CC(C)C)C(=O)N[C@@H](Cc2ccc(-c3ccccc3)cc2)C(=O)N[C@@H](C(C)C)C(=O)N(C)[C@@H](C)C(=O)N[C@H](CC(C)C)C(=O)N[C@@H](CCN)C(=O)N[C@@H](CC2CCCCC2)C(=O)N[C@@H](C(C)(C)O)C(=O)N[C@@H](CO)C(=O)N1)C(=O)O [Compound 1941] ({CH2CO}-Y(Carboxymethyl)[Phe(4-COOH)]DWL[Bip]V[NMeA][dL][Dab][Cha][Val(3-OH)]SC[dA][Pra]-OH; thioether N-14)
0.03 | CCC[C@H]1NC(=O)[C@H](C)N(C)C(=O)[C@H](C(C)C)NC(=O)[C@H](Cc2ccc(-c3ccccc3)cc2)NC(=O)[C@H](CC(C)C)NC(=O)[C@H](Cc2c[nH]c3ccccc23)NC(=O)[C@H](CC(=O)O)NC(=O)[C@H](Cc2ccc(O)cc2)NC(=O)[C@H](Cc2ccccc2)NC(=O)CSC[C@@H](C(=O)N[C@@H](C)C(N)=O)NC(=O)[C@H](CO)NC(=O)[C@H](C(C)C)NC(=O)[C@H](CC(C)C)NC(=O)[C@H](CC(N)=O)NC1=O [Compound 1755] ({CH2CO}-FYDWL[Bip]V[NMeA][dNva]NLVSCA-NH2; thioether N-14)
0.03 | CC(C)C[C@@H]1NC(=O)[C@H](CCN)NC(=O)[C@@H](CC(C)C)NC(=O)[C@@H]2CCCCN2C(=O)[C@H](Cc2cnc[nH]2)NC(=O)[C@H](Cc2ccc(-c3ccccc3)cc2)NC(=O)[C@H](C(C)C)NC(=O)[C@H](Cc2c[nH]c3ccccc23)NC(=O)[C@H](CC(=O)O)NC(=O)[C@H](Cc2ccc(O)cc2)NC(=O)[C@H](CC(N)=O)NC(=O)CSC[C@@H](C(=O)N[C@@H](C)C(N)=O)NC(=O)[C@H]([C@@H](C)O)NC(=O)[C@H](C(C)C)NC1=O [Compound 1381] ({CH2CO}-NYDWV[Bip]H[Pip][dL][Dab]LVTCA-NH2; thioether N-14)
0.04 | CC(C)C[C@@H]1NC(=O)[C@H](CCCCN)NC(=O)[C@@H](CC(C)C)NC(=O)[C@H](C)N(C)C(=O)[C@H](CCC(=O)O)NC(=O)[C@H](Cc2ccc(-c3ccccc3)cc2)NC(=O)[C@H](C(C)C)NC(=O)[C@H](Cc2c[nH]c3ccccc23)NC(=O)[C@H](CC(=O)O)NC(=O)[C@H](Cc2ccc(O)cc2)NC(=O)[C@H](Cc2ccncc2)NC(=O)CSC[C@@H](C(=O)N[C@@H](C)C(N)=O)NC(=O)[C@H](C(C)O)NC(=O)[C@H](C(C)C)NC1=O (stereo partly drawn) [Compound 2057] ({CH2CO}-[4Pal]YDWV[Bip]E[NMeA][dL]KLV[Thr(3ξ)]CA-NH2; thioether N-14)
